Consider 58 molecules from patent publication US8575197B2, “Pyrolinone derivative and pharmaceutical composition comprising the same” (Shionogi & Co., Ltd., priority 2008, dated 2013).

The test concerns the target human P2X3 receptor (Homo sapiens (Human), UniProt P56373). In words: P2X3 receptor inhibition, ATP-evoked Fluo-3 calcium fluorescence (FDSS 3000). Format: cell-based. Particulars: C6BU-1 cell transfected with human P2X3 receptor gene; ATP-evoked Fluo-3 fluorescence. How it is done:
Stably expressing cell line (C6BU-1 cell transfected with human P2X3 receptor gene (GenBank accession number Y07683)) was used. The cells were seeded in a 96-well microtiter plate at a concentration of 8000 cells/well and cultured in the medium (8.3% fetal bovine serum, 8.3% horse serum, 1% antibiotic and antifungal in DMEM) for one day at 37° C. under 5% carbon dioxide atmosphere. The medium was replaced with 4 μM Fluo-3-AM solution (pH7.5) containing 20 mM HEPES, 137 mM NaCl, 2.7 mM KCl, 0.9 mM MgCl2, 5.0 mM CaCl2, 5.6 mM D-glucose, 2.5 mM probenecid, 10% BSA, and 0.08% Pluronic F-127, and incubated at 37° C. under 5% dioxide carbon atmosphere for one hour. The plate was washed with washing buffer (20 mM HEPES, 137 mM NaCl, 2.7 mM KCl, 0.9 mM MgCl2, 5.0 mM CaCl2, 5.6 mM D-glucose, 2.5 mM probenecid, pH7.5), and each well was added with 40 μL of this buffer. The plate was placed in High-Throughput Screening System FDSS 3000 (Hamamatsu Photonics K.K.). Measurement of fluorescence intensity by FDSS 3000 was started, and 40 μL of DMSO solutions containing different concentrations of the test compound as prepared by dilution with dilution buffer (20 mM HEPES, 137 mM NaCl, 2.7 mM KCl, 0.9 mM MgCl2, 5.0 mM CaCl2, 5.6 mM D-glucose, 2.5 mM probenecid, 0.1% Pluronic F-127, pH7.5) were dispensed to each well through the built-in automatic dispenser. Five minutes after, 40 nM ATP solution (50 μL) prepared by dilution with the dilution buffer was dispensed through the built-in automatic dispenser, and the measurement of fluorescence intensity was continued for 3 min. For each well, the specific maximum fluorescence intensity was calculated as the ratio of the maximum fluorescence intensity after addition of the ATP solution to the fluorescence intensity at the starting of the measurement. […] FDSS software (Hamamatsu Photonics K.K.) was used for calculation of the specific maximum fluorescence intensity. IC50 was calculated using Microsoft™ Excel™ (Microsoft Corporation) and XLfit™ (ID Business Solutions Ltd.).

pIC50: −log10 of the molar value.

human P2X3 receptor, sequence (P56373 whole entry): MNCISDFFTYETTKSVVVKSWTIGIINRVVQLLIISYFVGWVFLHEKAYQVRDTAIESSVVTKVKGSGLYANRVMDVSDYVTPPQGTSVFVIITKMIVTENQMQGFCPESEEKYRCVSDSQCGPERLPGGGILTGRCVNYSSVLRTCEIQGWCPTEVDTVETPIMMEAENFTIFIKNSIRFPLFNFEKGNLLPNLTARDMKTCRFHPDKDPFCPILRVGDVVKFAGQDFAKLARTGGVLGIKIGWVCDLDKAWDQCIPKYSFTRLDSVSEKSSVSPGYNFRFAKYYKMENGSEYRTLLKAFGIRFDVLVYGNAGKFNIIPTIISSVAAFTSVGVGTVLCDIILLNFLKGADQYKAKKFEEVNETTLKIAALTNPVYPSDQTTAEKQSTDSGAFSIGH

The term pIC50 denotes the negative decadic logarithm of the IC50, by convention in mol/L. `COc1ccccc1C1c2c(C(C)(C)C)n[nH]c2C(=O)N1c1ccc(-c2cccs2)cn1` (stereo not shown) [II-256]: the pIC50 is 7.74. Consider `COCCOc1ncccc1C1C(C(=O)C(C)(C)C)=C(O)C(=O)N1c1ccc(SC)cc1` (stereo not shown) [Compound I-150], for which the pIC50 is 6.38. Regarding `COCOc1ccccc1C1C(C(=O)CC(C)C)=C(O)C(=O)N1c1ccc(-c2csc(C)c2)cc1` (stereo not shown) [Compound I-372], the pIC50 is 7.46. The figure for `C=C(C)c1n[nH]c2c1C(c1ccccc1OC)N(c1ccc(-c3ccon3)cc1)C2=O` (stereo not shown) [II-149] is 6.42. The figure for `COc1ccc(-c2n[nH]c3c2C(C2CCCCC2)N(Cc2cc(C)on2)C3=O)cc1` (stereo not shown) [II-200] is 6.35; for `COc1ccc(N2C(=O)c3[nH]nc(C(C)(C)C)c3C2c2ccccc2OC)cc1` (stereo not shown) [II-098] it is 6.12; for `CC(C)CC(=O)C1=C(O)C(=O)N(c2ccc(-c3ccon3)cc2)C1c1ccccc1OCCO` (stereo not shown) [Compound I-323] it is 6.51. Take `COc1ccc(C(=O)C2=C(O)C(=O)N(c3ccc(-c4ccoc4)cc3)C2C2CCCCC2)cc1` (stereo not shown) [Compound I-039]: the pIC50 is 7.92. The figure for `COCOc1ccccc1C1C(C(=O)C(C)C)=C(O)C(=O)N1c1ccc(-c2ccc(C)s2)cc1` (stereo not shown) [Compound I-264] is 7.85; for `CC(C)OCc1ccccc1C1C(C(=O)C(C)C)=C(O)C(=O)N1c1ccc(-c2ccon2)cc1` (stereo not shown) [Compound I-540] it is 6.30. In the case of `CC(C)(C)c1n[nH]c2c1C(c1ccccc1OCCO)N(c1ccc(-c3nccs3)cc1)C2=O` (stereo not shown) [II-014], the pIC50 is 7.77. `CC(C)C(=O)C1=C(O)C(=O)N(c2ccc(-c3ccsc3)cc2)C1c1ccccc1OC(F)F` (stereo not shown) [Compound I-301]: the pIC50 is 7.74.

Consider `CC(C)(C)c1n[nH]c2c1C(c1ccccc1OCCNS(C)(=O)=O)N(c1ccc(-c3ccsc3)cc1)C2=O` (stereo not shown) [II-171], for which the negative-log IC50 (pIC50) is 8.15. Take `CC(C)C(=O)C1=C(O)C(=O)N(c2ccc(-c3ccsc3)cc2)C1c1cccnc1OCC(=O)O` (stereo not shown) [Compound I-195]: the pIC50 is 6.63.

As for `COc1ccccc1C1c2c(C(C)(C)c3ccccc3)n[nH]c2C(=O)N1c1ccc(-c2ccon2)cc1` (stereo not shown) [II-199], the pIC50 was 6.95.

With `CC(C)(C)c1n[nH]c2c1C(c1cccc[n+]1[O-])N(c1ccc(-c3ccsc3)cc1)C2=O` (stereo not shown) [II-074], the pIC50 was 7.49. As for `COc1ccccc1C1c2c(C(C)(C)C)n[nH]c2C(=O)N1c1ccc(-c2ccsc2Cl)cc1` (stereo not shown) [II-272], the pIC50 is 6.41. The figure for `COCCOc1ccccc1C1c2c(C(C)(C)CO)n[nH]c2C(=O)N1c1ccc(-c2ccsc2)cc1` (stereo not shown) [II-130] is 8.40; for `COc1ncccc1C1c2c(C(C)(C)C)n[nH]c2C(=O)N1c1ccc(-c2cccs2)cc1` (stereo not shown) [II-224] it is 7.51. Consider `COc1ccccc1C1C(C(=O)C2(CO)CCCCC2)=C(O)C(=O)N1c1ccc(-c2ccon2)cc1` (stereo not shown) [Compound I-031], for which the negative logarithm of the IC50 (pIC50) was 6.15. Then `COC(=O)COCc1ncccc1C1C(C(=O)C(C)(C)C)=C(O)C(=O)N1c1ccc(-c2ccsc2)cc1` (stereo not shown) [Compound I-181], with 6.94; and `COc1ccccc1C1C(C(=O)C(C)C)=C(O)C(=O)N1c1ccc(-c2cscn2)cc1` (stereo not shown) [Compound I-416], with 6.49; and `Cc1cc(-c2ccc(N3C(=O)c4[nH]nc(C(C)(C)C)c4C3c3ccccc3OCCO)cc2)on1` (stereo not shown) [II-015], with 7.06. In the case of `COc1ccc(C(=O)C2=C(O)C(=O)N(c3ccc(-c4nc(C)no4)cc3)C2c2ccccc2OC)cc1` (stereo not shown) [Compound I-032], the pIC50 was 6.80. The figure for `CCCCC(CCCC)C1C(C(=O)c2ccc(CO)cc2)=C(O)C(=O)N1c1ccc(-c2ccon2)cc1` (stereo not shown) [Compound I-007] is 7.00; for `Cc1nc(-c2ccc(N3C(=O)C(O)=C(C(=O)C(C)C)C3c3ccccc3OCCO)cc2)no1` (stereo not shown) [Compound I-277] it is 6.47. Then `COc1ccccc1C1c2c(CC(C)(C)C)n[nH]c2C(=O)N1c1ccc(-c2ccon2)cc1` (stereo not shown) [II-073], with 6.98.

Consider `CSc1ccccc1C1C(C(=O)C(C)C)=C(O)C(=O)N1c1ccc(-c2ccsc2)cc1` (stereo not shown) [Compound I-558], for which the pIC50 is 8.10. Then `Cc1nc(-c2ccc(N3C(=O)C(O)=C(C(=O)CC(C)C)C3c3ccccc3N3CCOCC3)cc2)no1` (stereo not shown) [Compound I-488], with 7.17; and `COc1ncccc1C1C(C(=O)CC(C)C)=C(O)C(=O)N1c1ccc(-c2ccsc2)cc1` (stereo not shown) [Compound I-291], with 6.89; and `COCCOc1ccccc1[C@@H]1C(C(=O)C(C)C)=C(O)C(=O)N1c1ccc(-c2ccc(C)s2)cc1` [Compound I-465], with 8.15. Then `COc1ccc(C(=O)C2=C(O)C(=O)N(c3nc4cc(OC)ccc4s3)C2c2ccccc2OCCO)cc1` (stereo not shown) [Compound I-125], with 6.96; and `COc1ccccc1C1c2c(C(C)C)n[nH]c2C(=O)N1c1ccc(-c2ccsc2)c(F)c1` (stereo not shown) [II-238], with 7.72. Then `COc1ccc(C(=O)C2=C(O)C(=O)N(c3ccc(-c4cccnc4)cc3)C2c2ccccc2OC)cc1` (stereo not shown) [Compound I-034], with 6.15; and `COc1cc(F)ccc1C1C(C(=O)C(C)(C)C)=C(O)C(=O)N1c1ccc(-c2ccon2)cc1` (stereo not shown) [Compound I-011], with 6.57. As for `COc1ncccc1C1c2c(C(C)(C)C)n[nH]c2C(=O)N1c1ccc(-c2noc(C)n2)cc1` (stereo not shown) [II-194], the negative logarithm of the IC50 (pIC50) was 6.41.

Regarding `COCCOc1ccccc1C1C(C(=O)C(C)(C)C)=C(O)C(=O)N1c1ccc(-c2cc[nH]c2)cc1` (stereo not shown) [Compound I-153], the pIC50 is 6.67. In the case of `COC(=O)COc1ccccc1C1C(C(=O)C(C)(C)C)=C(O)C(=O)N1c1ccc(-c2cccs2)cc1` (stereo not shown) [Compound I-113], the pIC50 was 7.92.

Turning to `CNC(=O)COc1ncccc1C1c2c(C(C)C)n[nH]c2C(=O)N1c1ccc(-c2ccsc2)cc1` (stereo not shown) [II-053], the pIC50 was 7.46.

As to `COc1ccccc1C1c2c(C(C)(C)CO)n[nH]c2C(=O)N1c1ccc(SC)cc1` (stereo not shown) [II-009], the pIC50 is 7.27.

For `COCCOc1ncccc1C1c2c(C(C)(C)C)n[nH]c2C(=O)N1c1ccc(-c2ccon2)cc1` (stereo not shown) [II-033], the pIC50 is 6.93.

As for `COc1ccccc1C1C(C(=O)C(C)(C)C)=C(O)C(=O)N1c1ccc(C(C)C)cc1` (stereo not shown) [Compound I-037], the pIC50 is 6.02.

For `CC(C)CC(=O)C1=C(O)C(=O)N(c2ccc(SC(F)(F)F)cc2)C1c1ccccc1OC(C)C` (stereo not shown) [Compound I-447], the pIC50 is 6.89.

`COc1ccccc1C1c2c(C(C)(C)C)n[nH]c2C(=O)N1c1ccc(-c2ccoc2)cn1` (stereo not shown) [II-247]: the negative-log IC50 (pIC50) is 7.48. The figure for `CC(C)Oc1ccccc1C1C(C(=O)C(C)(C)C)=C(O)C(=O)N1c1ccc(-c2ccon2)cc1` (stereo not shown) [Compound I-105] is 7.01; for `COc1ccccc1C1C(C(=O)C(C)C)=C(O)C(=O)N1c1ccc(-c2ccoc2)cc1` (stereo not shown) [Compound I-198] it is 7.19; for `Cc1cc(-c2ccc(N3C(=O)C(O)=C(C(=O)C(C)C)C3c3ccccc3OC(F)F)cc2)cs1` (stereo not shown) [Compound I-321] it is 7.15.

Turning to `Cc1noc(-c2ccc(N3C(=O)c4[nH]nc(C(C)(C)C)c4C3c3ccccc3OCCO)cc2)n1` (stereo not shown) [II-016], the pIC50 is 6.80.

As to `CC(C)C(=O)C1=C(O)C(=O)N(c2ccc(-c3ccon3)cc2)C1c1ccccc1OCC1CC1` (stereo not shown) [Compound I-588], the pIC50 was 7.54.

On to `COCc1ccccc1C1C(C(=O)CC(C)C)=C(O)C(=O)N1c1ccc(-c2csc(C)n2)cc1` (stereo not shown) [Compound I-428], for which the pIC50 was 6.40. With `CC(C)C(=O)C1=C(O)C(=O)N(c2ccc(-c3ccon3)cc2)C1c1ccccc1OC(F)(F)F` (stereo not shown) [Compound I-297], the pIC50 is 6.66. As to `Cc1ncccc1C1c2c(C(C)(C)C)n[nH]c2C(=O)N1c1ccc(-c2ccsc2)cc1` (stereo not shown) [II-123], the pIC50 was 6.37.

For `CC(C)COc1ccccc1C1C(C(=O)C(C)C)=C(O)C(=O)N1c1ccc(-c2ccon2)cc1` (stereo not shown) [Compound I-450], the pIC50 is 7.44. Then `COc1cccc(C2C(C(=O)C(C)C)=C(O)C(=O)N2c2ccc(-c3ccsc3)cc2)c1` (stereo not shown) [Compound I-284], with 6.52; and `COc1ccc(-c2n[nH]c3c2C(c2ccccc2OC)N(CCCc2ccco2)C3=O)cc1` (stereo not shown) [II-231], with 6.46. On to `COCOc1ccccc1C1C(C(=O)CC(C)C)=C(O)C(=O)N1c1ccc(-c2ccsc2)cc1` (stereo not shown) [Compound I-249], for which the pIC50 was 8.00. Then `COCCOc1ccccc1C1c2c(C(C)(C)CO)n[nH]c2C(=O)N1c1ccc(-c2ccon2)cc1` (stereo not shown) [II-132], with 6.85; and `COc1ccc(F)cc1C1C(C(=O)C(C)C)=C(O)C(=O)N1c1ccc(-c2csc(C)c2)cc1` (stereo not shown) [Compound I-453], with 7.39.
